The source of these data is patent publication US8552135B2, “Substituted polyalkoxysiloxane compositions and methods of use” (One Unlimited, Inc., priority 2006, dated 2013).

In this assay the test system is Pseudomonas aeruginosa. Briefly: burn wound infection treated with Nu-3 applied with glycerol polysiloxanes. It is filed as in vivo. The conditions noted are these: burn wound infections. An excerpt:
A particularly important medical treatment application is the healing effect of some of the hydrophilic substituted polydialkoxysiloxanes on radiation burn injuries. Skin irritation and burning is common in cases where patients undergo radiation treatment associated with certain cancers. Topical application of glycerol substituted polydialkoxysilane compositions relieves pain and accelerates healing compared to treatment with commonly used burn or cortisone ointments. […] Nubiotics are a new class of antibiotic agents with broad spectrum activity.

Turning to `CCCCOP(=O)(O)OC[C@H]1O[C@@H](n2cc(C)c(=O)[nH]c2=O)C[C@@H]1OP(=O)(O)O` [Nu-3, butyl-phosphate-5′-thymidine-3′-phosphate], the “antibacterial effectiveness of Nu-3 when applied with glycerol polysiloxanes” value is given as “only a slight decrease in antibacterial effectiveness”.
